Test results from patent US20100120738A1, “ANTI-APOPTOTIC BENZODIAZEPINE RECEPTOR LIGAND INHIBITORS” (priority 2006, published 2010).
Read-outs that look alike come from different tables or passages of the source.

Key:
[1] = Superoxide dismutase (SOD) activity; assay type: biochemical
[2] = system: PC12 cells; test: Protection against STS-induced apoptosis in PC12 cells (XTT viability assay); assay type: cell-based, rat
Method: Rat pheochromocytoma (PC12) cells were cultured in collagen-coated 96-well plates according to directions provided by the American Type Culture Collection. Staurosporine was added at various concentrations sufficient to induce apoptosis. Test compounds were added together with the staurosporine. Cells were incubated overnight at 37° C., 5% CO2. After 18-24 hours, test media was removed and cell viability was determined using the XTT viability assay described by Baker et al., J. Pharmacol. Exp, Therapeutics 284, 215-221, 1998, the contents of which are incorporated herein by reference.

[3] = system: Bovine capillary endothelial cells; test: Cytotoxicity/necrosis of non-irradiated cells (LDH release, field number); assay type: cell-based
Method: Bovine capillary endothelial cells were cultured on eight-chamber Labtek slides and exposed to ionizing radiation (20 Gy), which was calibrated using an X-ray exposure meter. […] In control experiments, cells either received no ionizing radiation (sham) or no compound. After 6 h incubation, the cells were fixed in methanol and stained with 5 μg/ml 4,6-diamidino-2-phenylindole (DAPI). DNA was visualized using a Nikon epifluorescence microscope, and apoptosis was scored and expressed as an apoptotic index (% apoptotic cells in a field of 100). […] Field number was also calculated for all other compounds tested as a control (results not shown).
To determine cytotoxicity of the compounds under these conditions, duplicate samples of the cells receiving a dose of compound at each concentration tested in the absence of a dose of ionizing radiation were assayed for release of LDH into the culture medium.

[4] = target: mitochondrial benzodiazepine receptor (mBzR) (Homo sapiens, UniProt P30536); test: Inhibition of tritiated PK11195 binding to the receptor; settings: read-out: Ki against the binding of PK11195
Method: Standard methods e.g., competition assays, are used to determine ge an inhibition, prevention or delay in binding of a ligand of a mitochondrial benzodiazepine receptor by a low molecular weight porphyrin derivative compound of the invention. As exemplified herein, labelled PK11195 compound is contacted with the receptor in the presence of different concentrations of a compound being tested and binding of the labelled PK11195 compound is determined. […] Preferably, the concentration of the compound being tested that inhibits binding of the ligand by 50% (i.e., […]) is determined.
FIG. 15 is a graphical representation showing the ability of the compounds {[{(Porphine-5,15-diyl)bis[cyclopropyl-diyl]}](2-)-N^21,N^22,N^23,N^24} manganese (III) acetate (EUK-418) and (5,10,15,20-Tetra ethylporphyrinato) manganese (III) acetate (EUK-425) to inhibit binding of tritiated PK11195 to the mitochondrial benzodiazepine receptor (mBzR). The Ki value for each compound is indicated.
FIG. 16 is a tabular representation showing a series of low molecular weight metalloporphyrin compounds designated EUK-418, EUK-423, EUK-424, EUK-425 and EUK-426, that inhibit ligand binding to the mitochondrial benzodiazepine receptor (mBzR) with moderate affinity, as determined by the Ki value (last column) for inhibition of tritiated PK11195, binding to the receptor. […]

[5] = system: cultured mesencephalic tissue slices; test: MPP+ induced neurodegeneration in cultured mesencephalic tissue slices (LDH release); assay type: cell-based, rat; settings: 20 μM MPP+; for prevention of cytotoxicity induced by MPP+: compound 100 nM, 1.0 μM, 10 μM, FIG. 17
Method: FIG. 17 is a graphical representation showing the effects of exemplary low molecular weight metalloporphyrin compounds of the present invention on MPP+ induced neurodegeneration in cultured mesencephalic tissue slices. Mesencephalic tissue slices were prepared from PND 3-5 rats and maintained in culture for 2 weeks. The tissue slices were incubated with a porphyrin compound as indicated on the x-axis for 6 hours before adding 20 μM MPP+ to induce neuronal apoptosis. Concentrations of each porphyrin compound tested were 100 nM ? 1.0 μM ? and 10 μM ? Following a further incubation for 48 hours, the slices were collected and the level of lactate dehydrogenase (LDH) released into the medium was determined.

[6] = Stability in USP simulated gastric fluid (SGF); assay type: in vitro ADME; settings: 37° C., pH approx. 1.2
Description: Aliquots of SGF were withdrawn and intact compound quantitated by HPLC-UV.

[7] = Lipophilicity by octanol partitioning; assay type: physicochemical; settings: for Log10 P value / P value (octanol partitioning coefficient): octanol-water
Method: To indicate the likelihood that the compounds will cross lipid membranes and be absorbed once administered by oral means, their lipophilicities were determined by octanol partitioning. […] Quantitation was performed by HPLC-UV.

[8] = system: Bovine capillary endothelial cells; test: Protection against radiation-induced apoptosis (DAPI apoptotic index); assay type: cell-based; settings: for concentration providing protection from the apoptotic effects of ionizing radiation: DAPI staining, apoptotic index, 6 h
Method: Bovine capillary endothelial cells were cultured on eight chamber Labtek slides and exposed to ionizing radiation (20 Gy) for 6 hours. After this time, cells were either left untreated or treated with compound at the concentration indicated on the x-axis. Cells were then fixed in methanol and stained with 5 μg/ml DAPI and DNA was visualized using a Nikon epifluorescence microscope, and apoptosis scored and expressed as an apoptotic index according to the percentage of apoptotic cells in a field of 100 cells. Open bars indicate apoptotic index following irradiation. Hatched bars indicate apoptotic index for control cells not receiving a dose of ionizing radiation.
Bovine capillary endothelial cells were cultured on eight-chamber Labtek slides and exposed to ionizing radiation (20 Gy), which was calibrated using an X-ray exposure meter. […] In control experiments, cells either received no ionizing radiation (sham) or no compound. After 6 h incubation, the cells were fixed in methanol and stained with 5 μg/ml 4,6-diamidino-2-phenylindole (DAPI). DNA was visualized using a Nikon epifluorescence microscope, and apoptosis was scored and expressed as an apoptotic index (% apoptotic cells in a field of 100).

[9] = Oral bioavailability in vivo, plasma levels by LC-MS/MS after intragastric gavage; parameters: species or system rat; settings: intragastric gavage, 4 mg/kg EUK-418 or 2 mg/kg EUK-423
Method: FIG. 18 is a graphical representation showing the bioavailability in vivo for the compounds {[{(Porphine-5,15-diyl)bis[cyclopropyl-diyl]}](2-)-N^21,N^22,N^23,N^24} manganese(III) acetate (EUK-418) and {[{(Porphine-5,15-diyl)bis[benzyl-diyl]}](2-)-N^21,N^22,N^23,N^24} manganese(III) acetate (EUK-423) in rats. Fasted and fed Sprague-Dawley rats were dosed by intragastric gavage with either 4 mg/kg EUK-418 or 2 mg/kg EUK-423. At the times indicated on the x-axis, plasma was obtained from the animals and the concentrations of compounds determined by LC-MS/MS.
Fasted and fed Sprague-Dawley rats were dosed by intragastric gavage with either 4 mg/kg EUK-418 or 2 mg/kg EUK-423. At time points up to 7 hr post-administration, animals were sacrificed, their blood collected over heparin, plasma samples prepared by centrifugation, and plasma levels of the compounds were determined by LC-MS/MS.

[10] = Plasma recovery after oral dose (another study); assay type: in vivo; settings: 3.5 mg/kg dose administered orally; not shown
[11] = cuvette format, read-out: Cuvette IC50
[12] = microplate format, read-out: Microplate IC50
[13] = FIG. 12, at up to about 5 μM concentration, toxicity blunts protection at high concentrations
[14] = FIG. 12, among compounds tested

Chain of mitochondrial benzodiazepine receptor (mBzR) (P30536 whole entry, species assumed): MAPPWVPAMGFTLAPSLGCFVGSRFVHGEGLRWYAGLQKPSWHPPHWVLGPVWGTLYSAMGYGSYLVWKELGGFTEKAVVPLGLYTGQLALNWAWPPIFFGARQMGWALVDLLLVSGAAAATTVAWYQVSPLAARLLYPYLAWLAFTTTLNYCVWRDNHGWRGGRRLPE

CC(=O)O.CCOc1cccc(C=NCCN=Cc2cccc(OCC)c2O)c1O.[Mn] [EUK-189, reference compound]
IC50 [1, 11]: 0.55 µM | IC50 [1, 12]: 0.824 µM

CC(=O)[O-].CCc1c2nc(c(CC)c3ccc([n-]3)c(CC)c3nc(c(CC)c4ccc1[n-]4)C=C3)C=C2.[Mn+3] [EUK-425, (5,10,15,20-Tetraethylporphyrinato)manganese (III) acetate]
effect on staurosporine-induced apoptosis of PC12 cells [2, 13]: effectively reduce apoptosis | necrosis at the doses tested ([3]; range of 0.5 μM to 100 μM, data therefore expressed as field number): necrosis was observed | Ki [4]: 0.027 µM | EC50 ([5]; LDH release, read-out: EC50 in MPP+ slice model): < 0.1 µM | prevention of cytotoxicity induced by MPP+ [5]: prevent cytotoxicity | Percentage remaining after 90 mins in SGF [6]: 97.0% | Log10 P value [7]: 0.932 ± 0.006 | P value (octanol partitioning coefficient) [7]: 8.56 ± 0.35 | IC50 [1, 11]: 32.5 µM | IC50 [1, 12]: 0.439 µM

CC(=O)[O-].COc1ccc(-c2c3nc(cc4ccc([n-]4)c(-c4ccc(OC)cc4)c4nc(cc5ccc2[n-]5)C=C4)C=C3)cc1.[Mn+3] [EUK-450, {[{(Porphine-5,15-diyl)bis[benzene-1,4 diyl (4-methyl-oxy)]}](2-)-N^21,N^22,N^23,N^24} manganese(III) acetate]
effect on staurosporine-induced apoptosis of PC12 cells [2, 13]: effectively reduce apoptosis | Percentage remaining after 90 mins in SGF [6]: 98.1% | Log10 P value [7]: 0.650 ± 0.010 | P value (octanol partitioning coefficient) [7]: 4.46 ± 0.11 | IC50 [1, 11]: 9.98 µM | IC50 [1, 12]: 3.12 µM

C1=Cc2nc1cc1ccc([n-]1)c(-c1ccccc1)c1nc(cc3ccc([n-]3)c2-c2ccccc2)C=C1.CC(=O)[O-].[Mn+3] [EUK-423, {[{(Porphine-5,15-diyl)bis[benzyl-diyl]}](2-)-N^21,N^22,N^23,N^24} manganese(III) acetate]
effect on staurosporine-induced apoptosis of PC12 cells ([2]; FIG. 11): effectively reduce apoptosis | effect on staurosporine-induced apoptosis of PC12 cells [2, 13]: effectively reduce apoptosis | concentration providing protection from the apoptotic effects of ionizing radiation ([8]; 20 Gy): 3 to 10 µM | protection of cells exposed to ionizing radiation ([8]; about 3-10 μM compound, 20 Gy, p<0.006): approximately 87% | protection of cells exposed to ionizing radiation ([8]; low doses, FIG. 13 and FIG. 14): protected | necrosis at the protective concentration ([3]; 3 μM EUK-418, about 3-10 μM EUK-423): no detectable necrosis | concentration causing significant increase in field number for control cells, indicating cytotoxicity ([3]; control cells without ionizing radiation): ≥ 30 µM | prevention of cytotoxicity induced by MPP+ [5]: prevent cytotoxicity | Percentage remaining after 90 mins in SGF [6]: 91.2% | Log10 P value [7]: 0.907 ± 0.002 | P value (octanol partitioning coefficient) [7]: 8.07 ± 0.10 | plasma time course [9]: increased in plasma during the first four hour period | found in plasma / bioavailable after oral administration ([9]; fasted and fed rats): bioavailable in vivo | IC50 [1, 11]: 17.3 µM | IC50 [1, 12]: 4.1 µM

CCCc1c2nc(cc3ccc([n-]3)c(CCC)c3nc(cc4ccc1[n-]4)C=C3)C=C2.[Cl-].[Mn+3] [EUK-453, {[{(Porphine-5,15-diyl)bis[propyl-diyl]}](2-)-N^21,N^22,N^23,N^24} manganese(III) chloride]
effect on staurosporine-induced apoptosis of PC12 cells [2, 13]: effectively reduce apoptosis | Percentage remaining after 90 mins in SGF [6]: 98.4% | Log10 P value [7]: 0.619 ± 0.017 | P value (octanol partitioning coefficient) [7]: 4.16 ± 0.16 | IC50 [1, 11]: 60.9 µM | IC50 [1, 12]: 2.3 µM

C1=Cc2nc1cc1ccc([n-]1)c(C1CCOCC1)c1nc(cc3ccc([n-]3)c2C2CCOCC2)C=C1.[Cl-].[Mn+3] [EUK-451, {[{(Porphine-5,15-diyl)bis[4-Tetrahydropyrano-diyl]}](2-)-N^21,N^22,N^23,N^24} manganese(III) chloride]
relative activity against STS-induced apoptosis [2, 14]: highest activity | relative toxicity in PC12 model [2, 14]: lowest toxicity | effect on staurosporine-induced apoptosis of PC12 cells [2, 13]: effectively reduce apoptosis | Percentage remaining after 90 mins in SGF [6]: 100% | Log10 P value [7]: −0.660 ± 0.011 | P value (octanol partitioning coefficient) [7]: 0.219 ± 0.005 | recovery from plasma [10]: recovered from plasma at low levels | IC50 [1, 11]: 29.1 µM | IC50 [1, 12]: 2.39 µM

C1=Cc2nc1cc1ccc([n-]1)c(C1CCCCC1)c1nc(cc3ccc([n-]3)c2C2CCCCC2)C=C1.[Cl-].[Mn+3] [EUK-452, {[{(Porphine-5,15-diyl)bis[cyclohexyl-diyl]}](2-)-N^21,N^22,N^23,N^24} manganese(III) chloride]
effect on staurosporine-induced apoptosis of PC12 cells [2, 13]: effectively reduce apoptosis | concentration providing protection from the apoptotic effects of ionizing radiation ([8]; 20 Gy): 3 µM | Percentage remaining after 90 mins in SGF [6]: 98.2% | lipophilicity ([7]; octanol partitioning): most lipophilic | Log10 P value [7]: 1.973 ± 0.008 | P value (octanol partitioning coefficient) [7]: 93.97 ± 1.67 | IC50 [1, 11]: 20.1 µM | IC50 [1, 12]: 9.05 µM

CC(=O)[O-].CC(C)c1c2nc(c(C(C)C)c3ccc([n-]3)c(C(C)C)c3nc(c(C(C)C)c4ccc1[n-]4)C=C3)C=C2.[Mn+3] [EUK-424, (5,10,15,20-Tetraisopropylporphyrinato)manganese (III) acetate]
prevention of cytotoxicity induced by MPP+ [5]: prevent cytotoxicity
